Data: PubChem BioAssay (NCI)
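Exposure lasted 48 hours, with cells grown in 96-well plates and compounds tested at five concentrations. The concentration for 50% growth inhibition is given as GI50. TGI denotes the concentration required for complete inhibition of growth.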

Assays:
Test in all cases: inhibition of tumour cell growth, NCI panel, 48 h
A549 NSCLC = system: A549 NSCLC
DU-145 prostate = system: DU-145 prostate
HL-60(TB) leukemia = system: HL-60(TB) leukemia
HS 578T breast = system: HS 578T breast
HT29 colon = system: HT29 colon
KM12 colon = system: KM12 colon
NCI-H522 lung = system: NCI-H522 lung
OVCAR-3 ovarian = system: OVCAR-3 ovarian
OVCAR-5 ovarian = system: OVCAR-5 ovarian
RPMI-8226 leukemia = system: RPMI-8226 leukemia

SMILES	GI50 (A549 NSCLC)	TGI (A549 NSCLC)	GI50 (DU-145 prostate)	TGI (DU-145 prostate)	GI50 (HL-60(TB) leukemia)	TGI (HL-60(TB) leukemia)	GI50 (HS 578T breast)	TGI (HS 578T breast)	GI50 (HT29 colon)	TGI (HT29 colon)	GI50 (KM12 colon)	TGI (KM12 colon)	GI50 (NCI-H522 lung)	TGI (NCI-H522 lung)	GI50 (OVCAR-3 ovarian)	TGI (OVCAR-3 ovarian)	GI50 (OVCAR-5 ovarian)	TGI (OVCAR-5 ovarian)	GI50 (RPMI-8226 leukemia)	TGI (RPMI-8226 leukemia)
Nc1cc2nc3ccccc3oc-2cc1=O	1.66 µM	3.84 µM	1.57 µM	2.98 µM	3.19 µM	> 100 µM	1.48 µM	5.52 µM	2.58 µM	> 21.7 µM	3.71 µM	43.5 µM	3.45 µM	10.1 µM	3.54 µM	29.3 µM	2.41 µM	5.79 µM	0.951 µM	> 20.4 µM
CCOC(=O)c1nc2cc(C(F)(F)F)ccc2[n+]([O-])c1C	> 100 µM	> 100 µM	> 100 µM	> 100 µM	> 100 µM	> 100 µM	> 100 µM	> 100 µM	> 100 µM	> 100 µM	> 100 µM	> 100 µM	> 100 µM	> 100 µM	> 100 µM	> 100 µM	> 100 µM	> 100 µM	> 100 µM	> 100 µM
CNC(=O)c1cc2c(Oc3ccc(NC(=S)NC(=O)Cc4ccccc4)cc3F)ccnc2cc1OC	> 48.6 µM	> 100 µM	> 31.4 µM	> 100 µM	> 100 µM	> 100 µM	1.29 µM	8.05 µM	3.16 µM	> 100 µM	3.91 µM	> 100 µM	10 µM	> 100 µM	> 28.6 µM	> 100 µM	> 36.1 µM	> 100 µM	> 28.3 µM	> 100 µM
O=C(COc1ccc(-c2nc3cc(Cl)c(Cl)cc3[nH]2)cc1)N=Nc1c(O)[nH]c2ccccc12			1.51 µM	> 100 µM	> 100 µM	> 100 µM	1.61 µM	5.68 µM	1.14 µM	> 100 µM			2.55 µM	> 100 µM	2.7 µM	> 100 µM	> 100 µM	> 100 µM		
Oc1ccccc1C=Nc1ccccc1N=Cc1ccccc1O.[Cu+2]	5.88 µM	18.2 µM	5.13 µM	18.5 µM			15.4 µM	92 µM	13.7 µM	32 µM	3.5 µM	15 µM	2.55 µM	12.3 µM	3.35 µM	14.4 µM	14.8 µM	36 µM	2.09 µM	40.8 µM
COc1ccc(-c2nc(-c3nc4ccc(C(F)(F)F)cc4[nH]3)c3ccccn23)cc1	28.5 µM	> 100 µM	> 100 µM	> 100 µM	> 100 µM	> 100 µM	> 100 µM	> 100 µM	58.2 µM	> 100 µM	36.4 µM	> 100 µM	> 100 µM	> 100 µM	> 100 µM	> 100 µM	> 100 µM	> 100 µM		
C#CC(=O)OCC#CCOC(=O)C#C		> 100 µM		90.3 µM				86.5 µM		42.7 µM		44 µM		9.81 µM		34.7 µM				34.3 µM
COc1ccc(/C(=N/O)c2cc(OC)c(OC)c(OC)c2)c(OC)c1N	8.21 µM	> 100 µM	4.67 µM	> 100 µM	3.38 µM	14.3 µM	4.74 µM	> 100 µM	3.54 µM	> 100 µM	3.27 µM	> 100 µM	4.02 µM	> 100 µM					5.35 µM	> 100 µM
C[n+]1c(/C=C/c2ccc(/C=N/NC(=O)c3ccc(C(=O)N/N=C/c4ccc(/C=C/c5cn6ccccc6[n+]5C)cc4)cc3)cc2)cn2ccccc21		> 100 µM		> 100 µM		67.4 µM		> 100 µM		> 100 µM		> 100 µM				> 100 µM		> 100 µM		> 100 µM
N=C(N)SCc1ccc([N+](=O)[O-])cc1[N+](=O)[O-]	21.6 µM	66.4 µM	2.25 µM	9.95 µM	3.38 µM	17.3 µM			5.44 µM	18.9 µM	9.5 µM	22.7 µM	1.48 µM	3.12 µM	4.54 µM	15.2 µM	23.1 µM	40 µM	5.26 µM	72.2 µM
Cc1cc2c(cc1C)[n+](Cc1ccc3ccccc3n1)cn2Cc1ccc2ccccc2n1	2.83 µM	13 µM	1.6 µM	6.56 µM			1.94 µM	5.48 µM	0.331 µM	1.63 µM	0.568 µM	2.06 µM	0.704 µM	2.47 µM	0.628 µM	2.12 µM	1.3 µM	6.89 µM	0.301 µM	1.62 µM
COc1ccc(C#CC2=C(c3cc(OC)c(OC)c(OC)c3)C(=O)OC2)cc1	14.3 µM	38.8 µM			4.48 µM	> 50 µM	13.1 µM	> 50 µM	2.66 µM	> 50 µM	1.63 µM	27.4 µM	8.6 µM	> 50 µM	1.59 µM	10.3 µM	> 50 µM	> 50 µM	1.21 µM	3.56 µM
O=c1cc(O)c2c(O)cc(O)cc2o1		> 100 µM		> 100 µM		> 100 µM		> 100 µM		> 100 µM				> 100 µM		> 100 µM		> 100 µM		> 100 µM
N#C/C(=C\c1cccc2cnccc12)N1N=NC2C=CC=CC21 (configuration not stated)	3.02 µM	> 100 µM	3.55 µM	> 100 µM	3 µM	24.3 µM	2.46 µM	9.16 µM	3.5 µM	> 100 µM	2.96 µM	32 µM	2 µM	> 100 µM	1.91 µM	4.88 µM	4.66 µM	> 100 µM		
COc1ccc(-c2nnc(Nc3nc(O)c(C4=c5cc(F)ccc5=NC4=O)s3)o2)cc1	64.6 µM	> 100 µM	46.9 µM	> 100 µM			69.1 µM	> 100 µM	40.5 µM	> 100 µM	43.1 µM	> 100 µM	33.9 µM	> 100 µM	14.8 µM	42.3 µM	> 100 µM	> 100 µM	59.1 µM	> 100 µM
